We go through 37 compounds from patent EP0771196B1, “EXCITATORY AMINO ACID RECEPTOR ANTAGONISTS” (ELI LILLY AND COMPANY, priority 1994, dated 1996).

Marks after values point to notes of the source that are not given here.

This assay concerns metabotropic glutamate receptors. In words: Displacement of 1S,3R-ACPD-sensitive [3H]glutamate binding to rat brain cell membranes. The following applies: crude membranes of rat forebrain; for IC50: inhibition of [3H]glutamate binding; for ACPD-Sensitive [^3H]Glutamate Binding % Displacement at 10 µM: 10 µM compound. The protocol: The binding of [^3H]glutamate was conducted with crude membranes of rat forebrain as described by Schoepp and True. Schoepp and True, Neuroscience Lett., 145, 100-104 (1992) and True and Schoepp, Society for Neuroscience Abstracts, 19, 470 (1993). IC50 values for the inhibition of [^3H]glutamate binding, or the percent displacement of [^3H]glutamate binding at a 10 µM concentration, of the formula I compound, is shown in Table II.

For the compound `NC(CCc1ccc(Br)cc1)(C(=O)O)[C@H]1C[C@@H]1C(=O)O` (mixture of isomers) [Example 82, 2SR- and 2RS-2-amino-2-(1SR,2SR-2-carboxycyclopropan-1-yl)-4-(4-bromophenyl)butanoic acid], the IC50 amounted to 680 nM. The same measure, in the same setting: the result for “2R-2- amino-2-(1R,2R-2-carboxycyclopropan-1-yl)-3-(dibenzopyran-4-yl)propanoic acid [Example 74]” reads 4200 nM; that for `NC(CCC12CC3CC(CC(C3)C1)C2)(C(=O)O)C1CC1C(=O)O` (stereo not shown) [Example 36], 200 nM. In the case of `NC(COc1ccccc1)(C(=O)O)C1CC1C(=O)O` (stereo not drawn) [Example 39, 2SR- and 2RS-2-amino-2-(1SR,2SR-2-carboxycyclopropan-1-yl)-3-phenoxypropanoic acid], the IC50 turned out to be 11200 nM.

The compound `NC(CCc1cccc(-c2ccccc2)c1)(C(=O)O)[C@H]1C[C@@H]1C(=O)O` (mixture of isomers) [Example 76, 2SR- and 2RS-2-amino-2-(1SR,2SR-2-carboxycyclopropan-1-yl)-4-(3-biphenyl)butanoic acid] yielded an IC50 of 510 nM. The compound `Cc1ccc(CCC(N)(C(=O)O)[C@H]2C[C@@H]2C(=O)O)cc1` (mixture of isomers) [Example 22, 2SR- and 2RS-2-amino-2-(1SR,2SR-2-carboxycyclopropan-1-yl)-4-(4-methylphenyl)butanoic acid] registered a concentration for half-maximal inhibition (IC50) of 590 nM. Take `NC(CCC1CCNCC1)(C(=O)O)C1CC1C(=O)O` (stereo not drawn) [Example 45, 2SR- and 2RS-2-amino-2-(1SR,2SR-2-carboxycyclopropan-1-yl)-2-(piperidin-4-yl)butanoic acid]: the “ACPD-Sensitive [^3H]Glutamate Binding % Displacement at 10 µM” value was “(42%)”. Take `N[C@@](CC1c2ccccc2Oc2ccccc21)(C(=O)O)[C@H]1C[C@@H]1C(=O)O` [Example 71, 2R-2 amino-2-(1S,2S-2-carboxycyclopropan-1-yl)-3-(dibenzopyran-4-yl)propanoic acid]: the half-inhibitory concentration (IC50) came out at 530 nM.

In turn, `NC(CCc1cccc(C(F)(F)F)c1)(C(=O)O)C1CC1C(=O)O` (stereo not drawn) [Example 37, 2SR- and 2RS-2-amino-2-(1SR,2SR-2-carboxycyclopropan-1-yl)-4-(3-(trifluoromethyl)phenyl)butanoic acid] returned an IC50 of 64 nM. `NC(CCc1ccc(O)cc1)(C(=O)O)C1CC1C(=O)O` (stereo not drawn) [Example 31, 2SR- and 2RS-2-amino-2-(1SR,2SR-2-carboxycyclopropan-1-yl)-4-(4-hydroxyphenyl)butanoic acid] returned an IC50 of 300 nM. Against the preceding compound, the IC50 is about 4.7-fold higher. Take `Cc1cccc(CCC(N)(C(=O)O)C2CC2C(=O)O)c1` [Example 67, 2R-2-amino-2-(1S,2S-2-carboxycyclopropan-1-yl)-4-(3-methylphenyl)butanoic acid]: the “ACPD-Sensitive [^3H]Glutamate Binding % Displacement at 10 µM” value (10 µM) is recorded as “(22%)^b”. As to `CCC(N)(C(=O)O)C1CC1C(=O)O` (stereo not drawn) [Example 9, 2SR- and 2RS-2-amino-2-(1SR,2SR-2-carboxycyclopropan-1-yl)butanoic acid], the IC50 amounted to 2200 nM. This counts as single-digit micromolar. Regarding `NC(CCc1cccs1)(C(=O)O)[C@H]1C[C@@H]1C(=O)O` (mixture of isomers) [Example 58, 2SR- and 2RS-2-amino-2-(1SR,2SR-2-carboxycyclopropan-1-yl)-4-(2-thienyl)butanoic acid], the IC50 worked out at 580 nM. The same measure, in the same setting: next, `NC(CCc1c(F)c(F)c(F)c(F)c1F)(C(=O)O)[C@H]1C[C@@H]1C(=O)O` (mixture of isomers) [Example 50, 2SR- and 2RS-2-amino-2-(1SR,2SR-2-carboxycyclopropan-1-yl)-4-(2,3,4,5,6-pentafluorophenyl)butanoic acid]: 370 nM. Regarding `NC(CCCc1ccccc1)(C(=O)O)C1CC1C(=O)O` (stereo not drawn) [Example 3, 2SR- and 2RS-2-amino-2-(1SR,2SR-2-carboxycyclopropan-1-yl)-5-phenylpentanoic acid], the IC50 stood at 630 nM. Same read-out and setting: the result for `NC(CCCC(c1ccccc1)c1ccccc1)(C(=O)O)C1CC1C(=O)O` (stereo not drawn) [Example 7, 2SR- and 2RS-2-amino-2-(1SR,2SR-2-carboxycyclopropan-1-yl)-6,6-diphenylhexanoic acid] reads 7000 nM. The compound `Cc1cccc(CCC(N)(C(=O)O)C2CC2C(=O)O)c1` [Example 70, 2S-2-amino-2-(1R,2R,2-carboxycyclopropan-1-yl)-4-(3-methylphenyl)butanoic acid] showed an IC50 of 8100 nM. On the same count and under the same terms, the result for `NC(CCc1ccc(F)c(F)c1)(C(=O)O)[C@H]1C[C@@H]1C(=O)O` (mixture of isomers) [Example 78, 2SR- and 2RS-2-amino-2-(1SR,2SR-2-carboxycyclopropan-1-yl)-4-(3,4-difluorophenyl)butanoic acid] reads 37 nM. The same measure, in the same setting: the result for `COc1ccc(CCC(N)(C(=O)O)C2CC2C(=O)O)cc1` (stereo not drawn) [Example 28, 2SR- and 2RS-2-amino-2-(1SR,2SR-2-carboxycyclopropan-1-yl)-4-(4-methoxyphenyl)butanoic acid] reads 1400 nM; that for `N[C@](Cc1cccc2c1Oc1ccccc1C2)(C(=O)O)[C@@H]1C[C@H]1C(=O)O` [Example 73, 2S-2 amino-2-(1R,2R-2-carboxycyclopropan-1-yl)-3-(dibenzopyran-4-yl)propanoic acid], 860 nM; that for `NC(CCc1ccc(C(=O)O)cc1)(C(=O)O)[C@H]1C[C@@H]1C(=O)O` (mixture of isomers) [Example 80, 2SR- and 2RS-2-amino-2-(1SR,2SR-2-carboxycyclopropan-1-yl)-4-(4-carboxyphenyl)butanoic acid], 370 nM. The same measure, in the same setting: the result for `NC(CCc1ccc2ccccc2c1)(C(=O)O)[C@H]1C[C@@H]1C(=O)O` (mixture of isomers) [Example 19, 2SR- and 2RS-2-amino-2-(1SR,2SR-2-carboxycyclopropan-1-yl)-4-(naphth-2-yl)butanoic acid] reads 2800 nM. The compound `NC(CCc1ccc(F)cc1F)(C(=O)O)[C@H]1C[C@@H]1C(=O)O` (mixture of isomers) [Example 77, 2SR- and 2RS-2-amino-2-(1SR,2SR-2-carboxycyclopropan-1-yl)-4-(2,4-difluorophenyl)butanoic acid] returned an IC50 of 60 nM. For the compound `CC(C)CCC(N)(C(=O)O)[C@H]1C[C@@H]1C(=O)O` (mixture of isomers) [Example 16, 2SR- and 2RS-2-amino-2-(1SR,2SR-2-carboxycyclopropan-1-yl)-5-methylhexanoic acid], the IC50 amounted to 1100 nM. This IC50 is about 18-fold higher than that of the compound before. Take `Cc1cccc(CCC(N)(C(=O)O)C2CC2C(=O)O)c1` (stereo not drawn) [Example 69, 2R-2-amino-2-(1R ,2R-2-carboxycyclopropan-1-yl)-4-(3-methylphenyl)butanoic acid]: where the note is “10 µM”, the “ACPD-Sensitive [^3H]Glutamate Binding % Displacement at 10 µM” value is recorded as “(13%)^d”.

The compound `CC(C)CCCC(N)(C(=O)O)[C@H]1C[C@@H]1C(=O)O` (mixture of isomers) [Example 17, 2SR- and 2RS-2-amino-2-(1SR, 2SR-2-carboxycyclopropan-1-yl)-6-methylheptanoic acid] displayed an IC50 of 850 nM.

For the compound `NC(CCc1cc(Cl)cc(Cl)c1)(C(=O)O)[C@H]1C[C@@H]1C(=O)O` (mixture of isomers) [Example 75, 2SR- and 2RS-2-amino-2-(1SR,2SR-2carboxycyclopropan-1-yl)-4-(3,5-dichlorophenyl)butanoic acid], the IC50 turned out to be 25 nM. Same read-out and setting: the result for `CC(C)CC(N)(C(=O)O)[C@H]1C[C@@H]1C(=O)O` (mixture of isomers) [Example 15, 2SR- and 2RS-2-amino-2-(1SR,2SR-2-carboxycyclopropan-1-yl)-4-methylpentanoic acid] reads 700 nM.

Turning to `NC(CCc1ccccc1Oc1ccccc1)(C(=O)O)[C@H]1C[C@@H]1C(=O)O` (mixture of isomers) [Example 84, 2SR- and 2RS-2-amino-2-(1SR,2SR-2-carboxycyclopropan-1-yl)-4-(2-phenoxyphenyl)butanoic acid], the IC50 came to 360 nM. This IC50 is about 1.9-fold lower than that of the compound before. In the case of `CC(C)C(N)(C(=O)O)[C@H]1C[C@@H]1C(=O)O` (mixture of isomers) [Example 14, 2SR- and 2RS-2-amino-2-(1SR,2SR-2-carboxycyclopropan-1-yl)-3-methylbutanoic acid], the “ACPD-Sensitive [^3H]Glutamate Binding % Displacement at 10 µM” value is “(17%)”. As to `CC(N)(C(=O)O)C1CC1C(=O)O` (stereo not drawn) [Example 8, 2SR- and 2RS-2-amino-2-(1SR,2SR-2-carboxycyclopropan-1-yl)propanoic acid, reference compound], the IC50 turned out to be 6200 nM. Compound `NC(CCC1C2CCCC1CCC2)(C(=O)O)[C@H]1C[C@@H]1C(=O)O` (mixture of isomers) [Example 83, 2SR- and 2RS-2-amino-2-(1SR,2SR-2-carboxycyclopropan-1-yl)-4-(9-bicyclo[3.3.1]nonanyl)butanoic acid] displayed an IC50 of 2600 nM.

For `NC(CCc1ccc(-c2ccccc2)cc1)(C(=O)O)[C@H]1C[C@@H]1C(=O)O` (mixture of isomers) [Example 49, 2SR- and 2RS-2-amino-2-(1SR,2SR-2-carboxycyclopropan-1-yl)-4-(4-biphenyl)butanoic acid], the IC50 stood at 1500 nM.

On to `NC(Cc1cccc2c1Oc1ccccc1C2)(C(=O)O)[C@H]1C[C@@H]1C(=O)O` (mixture of isomers) [Example 35, 2SR- and 2RS-2-amino-2-(1SR,2SR-2-carboxycyclopropan-1-yl)-3-(dibenzopyran-4-yl)propanoic acid], for which the IC50 was 9 nM. On the same count and under the same terms, next, `NC(CCc1ccccc1Cl)(C(=O)O)[C@H]1C[C@@H]1C(=O)O` (mixture of isomers) [Example 23, 2SR- and 2RS-2-amino-2-(1SR,2SR-2-carboxycyclopropan-1-yl)-4-(2-chlorophenyl)butanoic acid]: 260 nM. Same read-out and setting: the result for `NC(CCCCc1ccccc1)(C(=O)O)C1CC1C(=O)O` (stereo not drawn) [Example 4, 2SR- and 2RS-2-amino-2-(1SR,2SR-2-carboxycyclopropan-1-yl)-6-phenylhexanoic acid] reads 2300 nM; that for `NC(CCC(c1ccccc1)c1ccccc1)(C(=O)O)C1CC1C(=O)O` (stereo not drawn) [Example 6, 2SR- and 2RS-2-amino-2-(1SR,2SR-2-carboxycyclopropan-1-yl)-5,5-diphenylpentanoic acid], 7100 nM.
